What all share (format): cell-based
Assay [1] addresses DDR1 (Homo sapiens, UniProt Q08345). Nature of the assay: Degradation of DDR1 in tumor cell MKN45 (Western blot). Also on record: The degradation activity of the compounds against DDR1 in the MKN45 cell line; endogenous in cells; host or cells: MKN45. The settings on record: MKN-45, maximum degradation percentage, MKN45 cells, 24 hours. The procedure: Western blot experiment: Take gastric cancer cells (MKN45) and inoculate them into a 6-well plate at a concentration of […], adding 2 ml to each well and incubating for 24 hours.
The next day, observe the cells under a microscope to confirm their status. Prepare compounds, weigh a certain amount of the series compounds or reference drug cabozantinib from this patent, first prepare a high concentration mother liquor with pure DMSO, and use gradient dilution method to prepare compound concentrations of 2 mM, 200 μM, 100 μM, 20 μM, 2 μM, 200 nM, and 0 nM. The final concentration of DMSO is 0.5%. Shake to thoroughly mix. Add 10 μl of solution to each well. After incubation for 24 hours, remove the cells and use a pipette to aspirate the suspended cells into a 1.5 ml centrifuge tube. Centrifuge at 5000 rpm for 10 minutes to precipitate the cells. Carefully remove the cell precipitate from the culture medium, add 1 ml of PBS and shake slightly. After repeated cleaning for 3 times, dry the residue. Add 150 μl of RIPA lysate pre mixed with 1% PMSF, blow to allow the lysate to fully contact the cells, and incubate on ice for 10 minutes. Centrifuge at 12000 rpm for 10 minutes, extract the supernatant, use the BCA protein quantification kit to determine and homogenize the sample loading.
Mix BCA-A in a 50:1 ratio Prepare working solution with B solution, dilute the sample by 5 times, then pipette 20 μl onto a 96 well ELISA plate. Add 200 μl of pre mixed BCA working solution and incubate at 37° C. for 20 minutes. Measure the A562 nm absorbance value using an ELISA reader and substitute it into the protein standard curve formula to obtain the sample concentration. After calculating the required volume for loading […] of sample, divide the sample into 1.5 ml centrifuge tubes. Add 10 μl of sample buffer to each tube and mix well. Heat in a 95° C. metal bath for 5 minutes to denature the protein.
Take 4-20% gradient pre adhesive and fix it on the adhesive rack. Add electrophoresis solution to the slot and remove the comb, Marker and protein samples were loaded, and after 30 minutes of electrophoresis at 80V, the voltage was adjusted to 120V for electrophoresis, The marker band stops electrophoresis at the forefront of the gel. Take out the adhesive block and cut it to the appropriate size, The PVDF membrane was cut and activated in methanol, and after activation, the PVDF membrane was equilibrated in a membrane transfer equilibrium solution for 1 minute. Using sponge pads The sequence of PVDF film, adhesive, and sponge pad is placed in the splint and placed in the eBlot equipment for rapid wet rotation. Remove the membrane and seal it in 5% skim milk powder dissolved in 1×TBST for 1 hour. Cut the membrane according to the molecular weight of the target protein and internal reference protein, and place it in primary antibody diluted with 1×TBST. Shake overnight at 4° C.
The next day, transfer the band to 1×TBST for 3 washes, then add a specific dilution of the secondary antibody and shake it for 1.5 hours. Transfer the band again to 1×TBST for 3 washes, prepare ECL color solution, place the membrane in the imaging system, cover the surface with ECL color solution, and take photos of the membrane using the imaging system.
Using the SHST analysis system to analyze the results, measure the grayscale values of each band of the target protein and internal reference protein. Normalize the grayscale values of the target protein/corresponding lane GAPDH grayscale values, and perform quantitative analysis according to the protein amount=experimental group grayscale value/blank control group grayscale value.
The activity of the compound of the present invention in degrading DDR in tumor cell line MKN45 was measured. […]

The test system of assay [2] is MKN45. Briefly: Growth inhibition of gastric cancer cells MKN45 (CCK-8). As to conditions: Homo sapiens, MKN-45, half inhibitory concentration, 72 hours. The procedure:
(§1) Inoculate gastric cancer cells (SNU5 or MKN45) into a 96 well plate at a concentration of […], with 100 μl added to each well. Incubate for 30 minutes. Observe the cell status under a microscope. Prepare compounds, weigh a certain amount of the series compounds or reference drug cabozantinib of this patent, first prepare a high concentration mother liquor with pure DMSO, and use gradient dilution method to prepare a concentration of 200 μM, 60 μM, 20 μM, 6 μM, 2 μM, 600 nM, 200 nM, 0 nM drug solution, shake to make it fully mixed. The control group was prepared with cabozantinib using the same solvent and method.
(§2) After preparation, add 1 μl of drug solution to each well of the 96 well plate, and then add 100 μl of culture medium. Repeat each dose three times. Gently shake to allow the cells and medication to come into full contact and incubate in the incubator for 72 hours. 72 hours later, remove and color with CCK-8 reagent kit. Add 20 μl of CCK-8 reagent to each well, gently shake well, and incubate in the incubator for 1 hour. After 1 hour, remove and measure the absorbance of each well using an enzyme-linked immunosorbent assay (ELISA) reader at a wavelength of 450 nm.
(§3) According to the formula: Cell growth inhibition rate=[1−(absorbance of experimental group absorbance of culture medium control group)/(absorbance of blank control group−absorbance of culture medium control group)]×100%. It can be concluded that the compound has the ability to inhibit the growth of gastric cancer cells at the current dose and time.
(§4) Draw a graph based on the gradient of concentration and use GraphPad Prism 9 software (GraphPad Software, La Jolla, CA) to calculate the maximum inhibitory concentration (IC50) at 50%.
(§5) Referring to steps 1 and 2 of this embodiment, the inhibitory effect of the compound of the present invention on the growth of cancer cells and the degradation effect of target proteins were measured, and the following results were obtained (see Table 2 below).
(§6) The growth inhibitory effects of the compound of the present invention on tumor cell lines MKN45 and SNU5 were measured. The activity is expressed as half inhibitory concentration (C50). The results are shown in Table 2 below; When the half inhibitory concentration is less than or equal to 100 nM, the compound activity is labeled as “++++”; When the half inhibitory concentration is greater than 100 nM and less than 500 nM, the compound activity is labeled as […] and less than 1000 nM, the compound activity is labeled as “++”; When the half inhibitory concentration is greater than 1000 nM and less than 3000 nM, the compound activity is marked as “+”; When the half inhibitory concentration is greater than 3000 nM, the compound activity is marked as […]

The test system of assay [3] is SNU5. Briefly: Growth inhibition of gastric cancer cells SNU5 (CCK-8). The settings on record: Homo sapiens, SNU-5, half inhibitory concentration, 72 hours. The protocol: as §1, §2, §3, §4, §5, §6

Molecules are shown by their SMILES. Bounds are passed on as bounds.

Chain of DDR1 (Q08345 19-913): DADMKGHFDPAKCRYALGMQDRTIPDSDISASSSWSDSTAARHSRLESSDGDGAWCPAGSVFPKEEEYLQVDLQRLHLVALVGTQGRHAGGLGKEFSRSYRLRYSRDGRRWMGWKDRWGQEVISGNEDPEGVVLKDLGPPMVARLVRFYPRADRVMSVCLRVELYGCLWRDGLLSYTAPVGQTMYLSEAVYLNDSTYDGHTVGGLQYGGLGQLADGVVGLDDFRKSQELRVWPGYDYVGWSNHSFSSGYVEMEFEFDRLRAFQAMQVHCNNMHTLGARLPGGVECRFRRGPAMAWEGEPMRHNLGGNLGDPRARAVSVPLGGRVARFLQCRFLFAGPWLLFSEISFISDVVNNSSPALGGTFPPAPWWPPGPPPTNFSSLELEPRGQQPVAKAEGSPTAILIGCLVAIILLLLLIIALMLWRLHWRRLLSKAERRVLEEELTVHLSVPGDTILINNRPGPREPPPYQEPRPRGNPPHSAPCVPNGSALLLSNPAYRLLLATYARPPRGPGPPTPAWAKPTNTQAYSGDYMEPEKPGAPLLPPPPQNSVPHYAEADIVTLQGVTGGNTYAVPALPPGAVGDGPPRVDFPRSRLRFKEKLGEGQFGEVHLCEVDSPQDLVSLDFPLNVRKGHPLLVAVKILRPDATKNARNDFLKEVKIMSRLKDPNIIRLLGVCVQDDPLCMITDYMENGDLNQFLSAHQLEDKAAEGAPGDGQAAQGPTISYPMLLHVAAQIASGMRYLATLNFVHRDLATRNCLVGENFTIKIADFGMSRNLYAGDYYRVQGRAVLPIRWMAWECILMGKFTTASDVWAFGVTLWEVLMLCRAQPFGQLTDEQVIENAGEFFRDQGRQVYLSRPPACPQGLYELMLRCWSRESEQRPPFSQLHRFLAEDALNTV

Compound `COc1cc2c(Oc3ccc(NC(=O)C4(C(=O)Nc5ccc(F)cc5)CC4)cc3)ccnc2cc1N1CCC(CN2CC(N[C@H](C(=O)N3C[C@H](O)C[C@H]3C(=O)NCc3ccc(-c4scnc4C)cc3)C(C)(C)C)C2)CC1` [TPD5431] had a Dmax in assay [1] of 65 to 75%. Moreover, the IC50 in assay [2] and in assay [3] was 1000 to 3000 nM throughout.

In turn, `COc1cc2c(Oc3ccc(NC(=O)C4(C(=O)Nc5ccc(F)cc5)CC4)cc3)ccnc2cc1N1CCC(N2CC(C(=O)N[C@H](C(=O)N3C[C@H](O)C[C@H]3C(=O)NCc3ccc(-c4scnc4C)cc3)C(C)(C)C)C2)CC1` [TPD5432] registered a Dmax in assay [1] of 75 to 85%. The IC50 in assay [2] is 100 to 500 nM; in assay [3], no more than 100 nM.

Compound `COc1cc2c(Oc3ccc(NC(=O)C4(C(=O)Nc5ccc(F)cc5)CC4)cc3)ccnc2cc1N1CCC(C(=O)N2CCC(C(=O)N[C@H](C(=O)N3C[C@H](O)C[C@H]3C(=O)NCc3ccc(-c4scnc4C)cc3)C(C)(C)C)CC2)CC1` [TPD5436] returned a Dmax in assay [1] of 65 to 75%. The IC50 in assay [2] and in assay [3] was 100 to 500 nM in each case.

In the case of `COc1cc2c(Oc3ccc(NC(=O)C4(C(=O)Nc5ccc(F)cc5)CC4)cc3)ccnc2cc1N1CCC(C(=O)NCC(=O)N[C@H](C(=O)N2C[C@H](O)C[C@H]2C(=O)NCc2ccc(-c3scnc3C)cc2)C(C)(C)C)CC1` [TPD5452], in assay [1], the Dmax lay within 65 to 75%. Further, the IC50 in assay [2] and in assay [3] was 1000 to 3000 nM throughout.

The compound `COc1cc2c(Oc3ccc(NC(=O)C4(C(=O)Nc5ccc(F)cc5)CC4)cc3)ccnc2cc1N1CCC(C(=O)NCCCCC(=O)N[C@H](C(=O)N2C[C@H](O)C[C@H]2C(=O)NCc2ccc(-c3scnc3C)cc2)C(C)(C)C)CC1` [TPD5453] came in with a Dmax in assay [1] of 75 to 85%. The results for the IC50 in assay [2] and in assay [3] were 1000 to 3000 nM and 500 to 1000 nM, respectively.

For `COc1cc2c(Oc3ccc(NC(=O)C4(C(=O)Nc5ccc(F)cc5)CC4)cc3)ccnc2cc1N1CCN(CCCC(=O)N[C@H](C(=O)N2C[C@H](O)C[C@H]2C(=O)NCc2ccc(-c3scnc3C)cc2)C(C)(C)C)CC1` [TPD5457], the maximal degradation (Dmax) in assay [1] lay within 75 to 85%. The 50% inhibitory concentration (IC50) in assay [2] and in assay [3] was no more than 100 nM in each case.

Regarding `COc1cc2c(Oc3ccc(NC(=O)C4(C(=O)Nc5ccc(F)cc5)CC4)cc3)ccnc2cc1N1CCC(N2CCN(C(=O)CCCCC(=O)N[C@H](C(=O)N3C[C@H](O)C[C@H]3C(=O)NCc3ccc(-c4scnc4C)cc3)C(C)(C)C)CC2)CC1` [TPD5494], the Dmax in assay [1] was greater than 85%. The results for the half-maximal inhibitory concentration (IC50) in assay [2] and in assay [3] were 1000 to 3000 nM and 100 to 500 nM, respectively.

`COc1cc2c(Oc3ccc(NC(=O)C4(C(=O)Nc5ccc(F)cc5)CC4)cc3)ccnc2cc1N1CCC(N2CCN(C(=O)CCOCC(=O)N[C@H](C(=O)N3C[C@H](O)C[C@H]3C(=O)NCc3ccc(-c4scnc4C)cc3)C(C)(C)C)CC2)CC1` [TPD5495] yielded a Dmax in assay [1] of 75 to 85%. In addition, the IC50 in assay [2] and in assay [3] was 100 to 500 nM throughout.

The compound `COc1cc2c(Oc3ccc(NC(=O)C4(C(=O)Nc5ccc(F)cc5)CC4)cc3)ccnc2cc1-c1cnn(C2CCN(C(=O)CCCCC(=O)N[C@H](C(=O)N3C[C@H](O)C[C@H]3C(=O)NCc3ccc(-c4scnc4C)cc3)C(C)(C)C)CC2)c1` [TPD5505] had a Dmax in assay [1] of 75 to 85%. For the same compound, the results for the IC50 in assay [2] and in assay [3] were 1000 to 3000 nM and 500 to 1000 nM, respectively.

`COc1cc2c(Oc3ccc(NC(=O)C4(C(=O)Nc5ccc(F)cc5)CC4)cc3)ccnc2cc1N1CCC(OCCC(=O)Nc2ccc3c(c2)C(=O)N(C2CCC(=O)NC2=O)C3=O)CC1` (stereo not drawn) [TPD5706]: the Dmax in assay [1] was in the range of 75 to 85%. For the same compound, the IC50 in assay [2] and in assay [3] was 100 to 500 nM throughout.

For `COc1cc2c(Oc3ccc(NC(=O)C4(C(=O)Nc5ccc(F)cc5)CC4)cc3)ccnc2cc1NC(=O)c1cnc(N2CCC(CN3CCN(c4ccc5c(c4)C(=O)N(C4CCC(=O)NC4=O)C5=O)CC3)CC2)nn1` (stereo not drawn) [TPD5714], the Dmax in assay [1] is 65 to 75%. The IC50 is 100 to 500 nM in assay [2] and no more than 100 nM in assay [3].

Regarding `COc1cc2c(Oc3ccc(NC(=O)C4(C(=O)Nc5ccc(F)cc5)CC4)cc3)ccnc2cc1NC(=O)CCN1CCC(CN2CCN(c3ccc4c(c3)C(=O)N(C3CCC(=O)NC3=O)C4=O)CC2)CC1` (stereo not drawn) [TPD5734], the Dmax in assay [1] lay in the range of 65 to 75%. The IC50 in assay [2] and in assay [3] was 100 to 500 nM throughout.

`COc1cc2c(Oc3ccc(NC(=O)C4(C(=O)Nc5ccc(F)cc5)CC4)cc3)ccnc2cc1NC(=O)CN1CCC(CN2CCN(c3ccc4c(c3)C(=O)N(C3CCC(=O)NC3=O)C4=O)CC2)CC1` (stereo not drawn) [TPD5735] yielded a Dmax in assay [1] of 75 to 85%. The values for the IC50 in assay [2] and in assay [3] were 500 to 1000 nM and 100 to 500 nM, respectively.

In the case of `COc1cc2c(Oc3ccc(NC(=O)C4(C(=O)Nc5ccc(F)cc5)CC4)cc3)ccnc2cc1NC(=O)CC1CCN(C(=O)CN2CCN(c3ccc4c(c3)C(=O)N(C3CCC(=O)NC3=O)C4=O)CC2)CC1` (stereo not drawn) [TPD5745], the Dmax in assay [1] is 65 to 75%. For the same compound, the IC50 in assay [2] and in assay [3] was 500 to 1000 nM each time.

Turning to `COc1cc2c(Oc3ccc(NC(=O)C4(C(=O)Nc5ccc(F)cc5)CC4)cc3)ccnc2cc1NC(=O)CN1CCN(CC2CCN(c3ccc4c(c3)C(=O)N(C3CCC(=O)NC3=O)C4=O)CC2)CC1` (stereo not drawn) [TPD5746], the Dmax in assay [1] lay within 75 to 85%. Further, the IC50 in assay [2] was 100 to 500 nM; in assay [3], 500 to 1000 nM.

For `COc1cc2c(Oc3ccc(NC(=O)C4(C(=O)Nc5ccc(F)cc5)CC4)cc3)ccnc2cc1NC(=O)CCCN1CCC(CN2CCN(c3ccc(NC4CCC(=O)NC4=O)cc3)CC2)CC1` (stereo not drawn) [TPD5752m], in assay [1], the Dmax was greater than 85%. The half-inhibitory concentration (IC50) in assay [2] and in assay [3] was 100 to 500 nM in each case.

`COc1cc2c(Oc3ccc(NC(=O)C4(C(=O)Nc5ccc(F)cc5)CC4)cc3)ccnc2cc1NC(=O)CN1CCC(CN2CCN(c3ccc(N(C)C4CCC(=O)NC4=O)nc3F)CC2)CC1` (stereo not drawn) [TPD5760] registered a Dmax in assay [1] of 65 to 75%. For the same compound, the IC50 in assay [2] and in assay [3] was 100 to 500 nM in each case.

For the origin of these results see patent publication US20240374738A1, “BIFUNCTIONAL COMPOUND CAPABLE OF DEGRADING RECEPTOR TYROSINE KINASE AND APPLICATION THEREOF” (TAIBIDI PHARMACEUTICAL TECHNOLOGY (SHIJIAZHUANG) CO., LTD., priority 2023, published 2024).
